The values that follow are results of earlier work, collected in PubChem BioAssay AID1259409 (Chemical Carcinogenesis Research Information System (CCRIS), 2018).

SMILES strings stand for the structures.

The series deals with rodent chemically induced tumor inhibition, incidence and multiplicity. Kind of series: CCRIS tumor inhibitor studies. The following applies: Route [Inhibitor]: ORAL, Promoter: NONE USED.

As for `CC1=C(/C=C/C(C)=C/C=C/C(C)=C/C(=O)Nc2ccc(O)cc2)C(C)(C)CCC1`, the “tumour outcome (control, treated, inhibition, significance)” value is given as 1/12 (8%), 2/21 (10%), -25%, not significant (Carcinogen: N-NITROSOBIS(2-OXYPROPYL)AMINE, 60599-38-4, Dose [Inhibitor]: 0.05, 0.1 OR 0.2 MILLIMOLAR/KG DIET FOR 32 WK STARTING 1 WK AFTER THE CARCINOGEN DOSE (STUDY DURATION: 33 WK), Species: HAMSTER, Strain/Sex: SYRIAN/MALE, Target Tissue: Type of Lesion: LUNG: ADENOMA, Dose [Carcinogen]: 40 MG/KG ONCE); 12/12 (100%), 21/21 (100%), 0%, not significant (Carcinogen: N-NITROSOBIS(2-OXYPROPYL)AMINE, 60599-38-4, Dose [Inhibitor]: 0.05, 0.1 OR 0.2 MILLIMOLAR/KG DIET FOR 32 WK STARTING 1 WK AFTER THE CARCINOGEN DOSE (STUDY DURATION: 33 WK), Species: HAMSTER, Strain/Sex: SYRIAN/MALE, Target Tissue: Type of Lesion: PANCREAS: ADENOMA, Dose [Carcinogen]: 40 MG/KG ONCE); 6/12 (50%), 13/21 (62%), -24%, not significant (Carcinogen: N-NITROSOBIS(2-OXYPROPYL)AMINE, 60599-38-4, Dose [Inhibitor]: 0.05, 0.1 OR 0.2 MILLIMOLAR/KG DIET FOR 32 WK STARTING 1 WK AFTER THE CARCINOGEN DOSE (STUDY DURATION: 33 WK), Species: HAMSTER, Strain/Sex: SYRIAN/MALE, Target Tissue: Type of Lesion: PANCREAS: CARCINOMA, Dose [Carcinogen]: 40 MG/KG ONCE); 83/98 (85%), 71/100 (71%), 16%, not significant (Carcinogen: NONE USED, Dose [Inhibitor]: 1 MILLIMOLAR IN DIET DAILY FOR 39 WK STARTING AT 2 MO OF AGE THROUGH THE END OF THE STUDY (STUDY DURATION: 39 WK), Species: MOUSE, Strain/Sex: C3H/FEMALE, Target Tissue: Type of Lesion: MAMMARY GLAND: ADENOCARCINOMA); 54/78 (69%), 62/78 (80%), -16%, not significant (Carcinogen: NONE USED, Dose [Inhibitor]: 1 MILLIMOLAR IN DIET FOR 14 WK STARTING AT 4-6 MO OF AGE THROUGH THE END OF THE STUDY (STUDY DURATION: 14 WK), Species: MOUSE, Strain/Sex: C3H/FEMALE, Target Tissue: Type of Lesion: MAMMARY GLAND: ADENOCARCINOMA); 83/98 (85%), 71/100 (71%), 16%, not significant (Carcinogen: NONE USED, Dose [Inhibitor]: 1 MILLIMOLAR IN DIET FOR 39 WK STARTING AT 2 MO OF AGE THROUGH THE END OF THE STUDY (STUDY DURATION: 39 WK), Species: MOUSE, Strain/Sex: C3H/FEMALE, Target Tissue: Type of Lesion: MAMMARY GLAND: ADENOCARCINOMA). Also, the “tumour outcome (control, treated, inhibition, significance)” value reads like this: (Carcinogen: NONE USED, Dose [Inhibitor]: 1.0 MM/KG IN DIET DAILY FOR 14 WK STARTING AT 4-6 MO OF AGE THROUGH THE END OF THE STUDY (STUDY DURATION: 14 WK), Species: MOUSE, Strain/Sex: C3H/FEMALE, Target Tissue: Type of Lesion: MAMMARY GLAND: ADENOCARCINOMA) 54/78 (69%), 62/78 (80%), -16%, not significant; (Carcinogen: NONE USED, Dose [Inhibitor]: 783 MG/KG DIET DAILY FOR 54 WK (STUDY DURATION: 54 WK), Species: RAT, Strain/Sex: ACI/MALE, Target Tissue: Type of Lesion: ADRENAL GLAND: TUMOR) 15/43 (35%), 18/43 (42%), -20%, not significant; (Carcinogen: NONE USED, Dose [Inhibitor]: 783 MG/KG DIET DAILY FOR 54 WK (STUDY DURATION: 54 WK), Species: RAT, Strain/Sex: ACI/MALE, Target Tissue: Type of Lesion: PANCREAS: ADENOMA) 1/40 (3%), 5/44 (11%), -267%, not significant; (Carcinogen: NONE USED, Dose [Inhibitor]: 783 MG/KG DIET DAILY FOR 54 WK (STUDY DURATION: 54 WK), Species: RAT, Strain/Sex: ACI/MALE, Target Tissue: Type of Lesion: PITUITARY GLAND: ADENOMA OR CARCINOMA) 20/39 (51%), 19/42 (45%), 12%, not significant; (Carcinogen: NONE USED, Dose [Inhibitor]: 783 MG/KG DIET DAILY FOR 54 WK (STUDY DURATION: 54 WK), Species: RAT, Strain/Sex: ACI/MALE, Target Tissue: Type of Lesion: PROSTATE GLAND: ADENOMA OR CARCINOMA) 19/44 (43%), 11/40 (28%), 35%, not significant; (Carcinogen: NONE USED, Dose [Inhibitor]: 783 MG/KG DIET DAILY FOR 54 WK (STUDY DURATION: 54 WK), Species: RAT, Strain/Sex: ACI/MALE, Target Tissue: Type of Lesion: SKIN: TUMORS) 12/45 (27%), 3/45 (7%), 74%, p<0.025. Besides, the “tumour outcome (control, treated, inhibition, significance)” value (Carcinogen: NONE USED, Dose [Inhibitor]: 783 MG/KG DIET DAILY FOR 54 WK (STUDY DURATION: 54 WK), Species: RAT, Strain/Sex: ACI/MALE, Target Tissue: Type of Lesion: TESTES: INTERSTITIAL CELL TUMOR) was 21/45 (47%), 24/44 (55%), -17%, not significant.
